pEC50: −log10 of the molar value. Entries after “also recorded” stand apart in the source; their conditions may differ.
Key:
organotypic SCN slices = test: Bioluminescence recording of circadian gene expression in organotypic SCN slices (mPer1::luc / PER2::LUC); assay type: cell-based, mice
Experimental: (§1) Per1::luciferase and; Per2-luc transgenic mice were used. For organotypic slice culture, brains were removed from pups 5-10 days old and sectioned at 300 um with a McIlwain “Tissue Chopper.” Slices were sorted and trimmed to contain principally SCN tissue and placed onto a Millipore membrane insert (PICMORG) for culture at 37° C. in 5% CO2 as described previously (Gainer et al, 1998).
Recordings of luciferase activity from organotypic slices of SCN or peripheral tissues were made from 5-7 day old pups from PER2::LUC and, Per1::LUC mice using either photomultiplier assemblies for whole tissue emission or CCD camera for single SCN cell imaging (Hamamatsu Photonics Ltd, U.K.) as described May Wood et al 2006 Curr. Biol. Vol. 16 pp 599-605. cAMP-ELISA kit was purchased from R&D systems (Wiesbaden, Germany). NIH 3T3 cells were cultured as described (Kume et al 1999 Cell Vol 98 pp 193-205) and transfected using Genejuice (Novagen, San Diego, Calif.). […] Drugs were solubilized in medium or dimethylsulfoxide (DMSO) to make stock solutions 50-1000× the working solutions. [DMSO] was never greater than 0.4%. RNA-interference against Epac1 and Epac 2 used pre-validated sequences as instructed (Validated Stealth RNAi, Invitrogen, CA). Western Blots were performed as Reddy et al (2006 Curr. Biol. Vol 16 oo 1107-15). Behavioural rhythms, recorded by running wheel and passive infra-red movement detectors, were analysed in Clocklab (Actimetrics, Evanston Ill.). Central cannulae directed stereotaxically at the SCN and sub-cutaneous minipumps (Alzet® model 1002 pump and brain infusion kit II) for drug infusion were fitted as instructed (Durect Corp. Cupertino, Calif.).
Statistical analysis was performed using Prism GraphPad™ and Statview™. Periods were calculated over ≧3 days recoding For comparative purposes, transcriptional amplitude from PMT recordings was calculated as 100× (post-treatment emission peak-trough/pre-treatment peak-trough). In all cases error bars indicate SEM about the mean where n≧3.

[1] = molecular target: T1, bisphosphate nucleotidase (Homo sapiens, UniProt O95861); conditions: cited from earlier work
T1 sequence (O95861 1-308): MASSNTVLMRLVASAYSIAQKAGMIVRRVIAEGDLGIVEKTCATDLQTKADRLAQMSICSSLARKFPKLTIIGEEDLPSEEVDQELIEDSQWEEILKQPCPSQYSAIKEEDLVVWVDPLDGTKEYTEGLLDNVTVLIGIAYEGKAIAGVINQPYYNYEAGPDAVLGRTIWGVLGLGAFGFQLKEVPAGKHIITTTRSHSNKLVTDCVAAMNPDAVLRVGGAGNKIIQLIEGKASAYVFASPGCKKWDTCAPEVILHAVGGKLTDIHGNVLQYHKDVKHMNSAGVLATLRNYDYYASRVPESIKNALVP

[2] = system: Slices/3T3 cells/other tissues; conditions: 10 mM LiCl2 (slices); 2 mM THFA (slices/3T3 cells/other tissues)
Experimental: as §1

[3] = molecular target: T2, inositol polyphosphate 1-phosphatase (Homo sapiens, UniProt P49441); conditions: cited from earlier work
T2 sequence (P49441 1-399): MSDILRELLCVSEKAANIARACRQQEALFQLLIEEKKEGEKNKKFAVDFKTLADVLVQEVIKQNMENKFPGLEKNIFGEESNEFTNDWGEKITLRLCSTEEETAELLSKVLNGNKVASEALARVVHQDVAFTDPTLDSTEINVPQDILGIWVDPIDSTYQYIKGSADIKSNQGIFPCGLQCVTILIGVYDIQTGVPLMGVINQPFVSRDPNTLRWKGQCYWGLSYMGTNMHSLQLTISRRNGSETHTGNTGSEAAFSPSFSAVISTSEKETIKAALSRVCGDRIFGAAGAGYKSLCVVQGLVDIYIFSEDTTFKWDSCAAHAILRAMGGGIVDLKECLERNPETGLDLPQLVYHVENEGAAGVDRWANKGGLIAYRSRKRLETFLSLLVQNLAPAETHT

inositol monophosphatase = molecular target: T3, inositol monophosphatase (Homo sapiens, UniProt P29218); conditions: cited from earlier work
T3 sequence (P29218 1-277): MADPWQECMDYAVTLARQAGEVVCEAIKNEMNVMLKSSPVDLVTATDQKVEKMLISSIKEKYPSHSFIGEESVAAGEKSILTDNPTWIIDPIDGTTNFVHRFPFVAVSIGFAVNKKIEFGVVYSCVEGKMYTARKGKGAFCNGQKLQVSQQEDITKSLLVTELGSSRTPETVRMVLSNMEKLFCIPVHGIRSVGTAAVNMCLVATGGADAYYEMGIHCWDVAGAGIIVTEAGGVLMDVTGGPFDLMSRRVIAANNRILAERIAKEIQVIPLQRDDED

[4] = 1 mM lithium final concentration in human serum; cited from earlier work
Water solubility = assay type: physicochemical
[5] = compared with THFA; cited from earlier work

| SMILES | increase in SCN period in vitro (organotypic SCN slices; 10 mM lithium) | circadian period (organotypic SCN slices; lithium treatment, organotypic slices, concentration not given) | increase in circadian period (organotypic SCN slices; lithium, organotypic tissue extracts) | circadian period (organotypic SCN slices; slices in 10 mM lithium) | pEC50 [1] | appearance of slices / cells / tissues [2] | pEC50 [3] | pEC50 (inositol monophosphatase) | toxicity [4] | water solubility (Water solubility) | solubility (Water solubility; water, read-out: water soluble up to) | effect on circadian period (organotypic SCN slices; wild-type mPer1::luc / PER2::LUC SCN slices) | metabolic and chemical stability [5] |
| --- | --- | --- | --- | --- | --- | --- | --- | --- | --- | --- | --- | --- | --- |
| [Li] [Lithium] | 2 to 3 h | approximately 26 hours | ~2 h | 26 h | > 2.70 | appear perfectly healthy | > 2.70 | > 2.70 | non-toxic |  |  |  |  |
| Nc1ncnc2c1ncn2C1CCCC1 [9-(cyclopentyl)-adenine, 9-(Cyclopentyl)-adenine] |  |  |  |  |  |  |  |  |  | water soluble | ≥ 125 mM | Reversible period lengthening; also recorded: Period was lengthened | greater metabolic and chemical stability than THFA |

From patent US20090264383A1, “Inhibitor of Adenylyl Cyclase for Treating a Disorder of the Circadian Rhythm” (Medical Research Council, priority 2006, published 2009)
